Results published in patent US20030229451A1, “Methods and systems for analyzing complex biological systems” (priority 2001, published 2003).

Test system: Saccharomyces cerevisiae wild type strain BY4743
Experiment: AF1 metabolite analysis (GC-MS, LC-MS) of yeast cells treated with antifungal drugs
Assay type: cell-based
Settings: for # Compounds perturbed: 2x MIC, two hours

OC(Cn1cncn1)(Cn1cncn1)c1ccc(F)cc1F [Fluconazole]
# Compounds perturbed (P < 0.05): 2 | # Compounds perturbed (P < 0.1): 6 | Fold Change, alanine (platform GC): 0.3084 | Fold Change, asparagine (platform GC): 0.3999 | Fold Change, aspartic acid (platform GC): 0.4337 | Fold Change, campesterol (platform GC): 0 | Fold Change, desmosterol (platform GC): 0 | Fold Change, disaccaride1 (platform GC): 0.3883 | Fold Change, disaccaride2 (platform GC): 0.1517 | Fold Change, disaccaride3 (platform GC): 0.5803 | Fold Change, ergosterol (platform GC): 0.948 | Fold Change, fucosterol (platform GC): 6.665 | Fold Change, glutamine (platform GC): 0.5242 | Fold Change, glycanopyrose (platform GC): 1.202 | Fold Change, glycerol (platform GC): 0.2187 | Fold Change, glycine (platform GC): −0.1037 | Fold Change, hexadecanoic acid (platform GC): 0.1343 | Fold Change, iso citric acid (platform GC): 0.3923 | Fold Change, isoleucine (platform GC): 0.391 | Fold Change, lanosterol (platform GC): 8.462 | Fold Change, leucine (platform GC): 0.3387 | Fold Change, lysine (platform GC): 0.3412 | Fold Change, malic acid (platform GC): 0.3975 | Fold Change, mevalonic acid lactone (platform GC): 0.2333 | Fold Change, octadecanoic acid (platform GC): 0.082 | Fold Change, oleic acid (platform GC): −0.3073 | Fold Change, ornithine2 (platform GC): 0.4473 | Fold Change, ornithine3 (platform GC): 0.2647 | Fold Change, palmiteliadic acid (platform GC): −0.08867 | Fold Change, phenylalanine (platform GC): 0.2774 | Fold Change, phosphate (platform GC): −0.508 | Fold Change, pyrimidine (platform GC): 0.2457 | Fold Change, 2-ketobutyric acid (platform nLC): −0.9992 | Fold Change, 2-ketoglutaric (platform nLC): −0.9995 | Fold Change, 3-indolylacetonitri (platform nLC): −0.9998 | Fold Change, 4-methylcatechol (platform nLC): 0 | Fold Change, 4aminobutyrate/dimg (platform nLC): 0.1384 | Fold Change, 5hydroxyLtryptophan (platform nLC): 0 | Fold Change, 6-benzylaminopurine (platform nLC): 0 | Fold Change, DLaminoadipic acid (platform nLC): 0.443 | Fold Change, NacetylDglucosamine (platform nLC): 0 | Fold Change, NacetylLglutamate (platform nLC): 0.1369 | Fold Change, NacetylLornithine (platform nLC): 0 | Fold Change, abscisic acid (platform nLC): 0 | Fold Change, aconitic acid (platform nLC): 0.6483 | Fold Change, adenine (platform nLC): 0 | Fold Change, adenosine (platform nLC): 0 | Fold Change, alanine (platform nLC): 0.399 | Fold Change, allantoic acid (platform nLC): 0.2392 | Fold Change, allantoin (platform nLC): 0.3942 | Fold Change, anthranilic acid (platform nLC): 0 | Fold Change, arginine (platform nLC): 0.6484 | Fold Change, argininosuccinate (platform nLC): 0 | Fold Change, asparagine (platform nLC): 0.3545 | Fold Change, aspartic (platform nLC): 0.4993 | Fold Change, benzoic acid (platform nLC): 0. | Fold Change, biotin (platform nLC): 0.3455 | Fold Change, caffeic acid (platform nLC): −0.4711 | Fold Change, catechol (platform nLC): 0 | Fold Change, cinnamic acid (platform nLC): 0 | Fold Change, citricanoic/itaconi. (platform nLC): 0 | Fold Change, citrulline (platform nLC): 0 | Fold Change, coumaric acid (platform nLC): 0 | Fold Change, cytidine (platform nLC): −0.7969 | Fold Change, cytosine (platform nLC): 0 | Fold Change, decanoic acid (platform nLC): 0.1846 | Fold Change, diaminopimelic acid (platform nLC): 0 | Fold Change, dihydrofolic acid (platform nLC): 0 | Fold Change, estrone (platform nLC): 0 | Fold Change, farnesol (platform nLC): 0 | Fold Change, folic acid (platform nLC): 0 | Fold Change, fumaric/3m2oxobutan (platform nLC): 0.6009 | Fold Change, gallic acid (platform nLC): 0.5071 | Fold Change, gibberellic (platform nLC): 0 | Fold Change, glucosamine6PO4 (platform nLC): −0.9951 | Fold Change, glutamic/acetylseri (platform nLC): 0.3842 | Fold Change, glutamine/lysine (platform nLC): 0.3309 | Fold Change, guanine (platform nLC): 0 | Fold Change, guanosine (platform nLC): −0.993 | Fold Change, histidine (platform nLC): 0 | Fold Change, homogentisic/uric (platform nLC): 0 | Fold Change, hydrocortisone (platform nLC): 0 | Fold Change, hypoxanthine (platform nLC): 0.7757 | Fold Change, indole3pyruvic acid (platform nLC): 0 | Fold Change, inostol/glucos/sorb (platform nLC): −0.4744 | Fold Change, isocitric/citric/qu (platform nLC): 1.457 | Fold Change, jasmonic acid (platform nLC): 0 | Fold Change, kinetin (platform nLC): 0 | Fold Change, lactic acid (platform nLC): −0.0439 | Fold Change, lauric acid (platform nLC): 0.3906 | Fold Change, leucine/isoleucine/ (platform nLC): 0.3306 | Fold Change, luteolin (platform nLC): 0 | Fold Change, malic acid (platform nLC): 0.4366 | Fold Change, malonic acid (platform nLC): 0 | Fold Change, menthol* (platform nLC): 0.04758 | Fold Change, methionine (platform nLC): 0 | Fold Change, nicotinic acid (platform nLC): 2.443 | Fold Change, nopaline (platform nLC): 0.3432 | Fold Change, oleic acid (platform nLC): −0.01684 | Fold Change, ornithine (platform nLC): 0.3508 | Fold Change, orotic acid (platform nLC): 0 | Fold Change, palmitic acid (platform nLC): −0.0233 | Fold Change, phenylalanine (platform nLC): 0.1527 | Fold Change, phenylpyruvic acid (platform nLC): 0 | Fold Change, phosphoenolpyruvate (platform nLC): 0 | Fold Change, pinitol (platform nLC): 0 | Fold Change, pipecolic acid (platform nLC): 0.2901 | Fold Change, porphobilinogen (platform nLC): 0 | Fold Change, proline (platform nLC): 0.4164 | Fold Change, pyridoxine (platform nLC): −0.04201 | Fold Change, 4-aminobenzoic acid (platform pLC): 0 | Fold Change, 4-methylcatechol (platform pLC): 0 | Fold Change, 4ambutyrate/dimglyc (platform pLC): −0.4383 | Fold Change, 5hydroxyLtryptophan (platform pLC): 0 | Fold Change, 6benzylaminopurine (platform pLC): 0 | Fold Change, DL-aminoadipic acid (platform pLC): 0.1155 | Fold Change, NacetylDglucosamine (platform pLC): 0 | Fold Change, NacetylLglutamate (platform pLC): 0 | Fold Change, NacetylLornithine (platform pLC): 0.1584 | Fold Change, abscisic acid (platform pLC): 0 | Fold Change, adenine (platform pLC): −0.09439 | Fold Change, adenosine (platform pLC): 0 | Fold Change, alanine/sarcosine (platform pLC): 0.1269 | Fold Change, allantoic acid (platform pLC): 0 | Fold Change, anthranilic acid (platform pLC): 0 | Fold Change, arginine (platform pLC): 0.1179 | Fold Change, argininosuccinate (platform pLC): 0 | Fold Change, asparagine (platform pLC): 0.3192 | Fold Change, aspartic acid (platform pLC): 0.214 | Fold Change, biotin (platform pLC): 0 | Fold Change, caffeine (platform pLC): 0 | Fold Change, citric acid TME (platform pLC): 0 | Fold Change, citrulline (platform pLC): 0.08252 | Fold Change, cytidine (platform pLC): 0 | Fold Change, cytosine (platform pLC): 0 | Fold Change, diaminopimelic acid (platform pLC): 0 | Fold Change, dihydrofolic acid (platform pLC): 0 | Fold Change, dipicolinic acid (platform pLC): 0 | Fold Change, folic acid (platform pLC): 0 | Fold Change, glucosamine (platform pLC): 0 | Fold Change, glucosamine6PO4 (platform pLC): 0 | Fold Change, glutamate (platform pLC): −0.06179 | Fold Change, glutamine/lysine (platform pLC): 0.2242 | Fold Change, glutathione (platform pLC): −0.05832 | Fold Change, guanosine (platform pLC): −0.9981 | Fold Change, histidine (platform pLC): 0 | Fold Change, hydrocortisone (platform pLC): 0 | Fold Change, hypoxanthine (platform pLC): 0.1298 | Fold Change, itaconic acid dimes (platform pLC): 0 | Fold Change, kinetin (platform pLC): 0 | Fold Change, leucine/isoleucine/ (platform pLC): 0.1638 | Fold Change, luteolin (platform pLC): 0 | Fold Change, mannitol (platform pLC): 0.152 | Fold Change, methionine (platform pLC): −0.2906 | Fold Change, mevalonic lactone (platform pLC): −0.5175 | Fold Change, niacinamide (platform pLC): 0 | Fold Change, nicotinic acid (platform pLC): −0.7982 | Fold Change, nopaline (platform pLC): 0 | Fold Change, ornithine (platform pLC): 0.4775 | Fold Change, phenylalanine (platform pLC): −0.1809 | Fold Change, phosphoenolpyruvate (platform pLC): 0 | Fold Change, pipecolic acid (platform pLC): 0.2583 | Fold Change, progesterone (platform pLC): 0 | Fold Change, proline (platform pLC): 0.2075 | Fold Change, pyridoxine (platform pLC): −0.3831
